Molecular target: tubulin (αβ-tubulin heterodimer)
Test: competition with [3H]colchicine binding
Set-up: species or system Bos taurus

- Ki: 12 to 15 µM
Structure (SMILES): COC(=O)C1=CC[C@@]23CC[C@@H]([C@@](C)(/C=C/C=C(\C)C(=O)O)OC2=O)[C@@]3(OC(C)=O)CC1 [PAB, pseudolaric acid B]
